# Results as given in publication PMC6966871 (Journal of Hematology & Oncology, 2020).
# pIC50: −log10 of the molar value. Like-named read-outs stand apart in the source and are kept apart here.
# What was measured:
# [1] = design: method as in PMID 30724423; conditions: cited from earlier work
# EGFR-mutant NSCLC = test system: EGFR-mutant NSCLC; design: method as in PMID 30156984; conditions: in combination with gefitinib, EGFR-mutant NSCLC progressed on previous gefitinib; cited from earlier work
# c-MET [h] = test system: c-MET [h]; design: method as in unpublished data; conditions: 0.2 μM in vitro; one range for all five kinases; ref unpublished data; cited from earlier work
# AXL kinase = conditions: read-out: IC50 against AXL kinase; cited from earlier work
# DDR2[h] = test system: DDR2[h]; design: method as in unpublished data; conditions: 0.2 μM in vitro; one range for all five kinases; ref unpublished data; cited from earlier work
# KDR [h] = test system: KDR [h]; design: method as in unpublished data; conditions: 0.2 μM in vitro; one range for all five kinases; ref unpublished data; cited from earlier work
# phosphorylation of c-MET = conditions: patient-derived xenograft tumors and MET-amplified cell lines, dose-dependent; cited from earlier work
# [2] = test system: advanced non-small cell lung cancer; assay: Tumor response assessed by investigators per RECIST v1.1; type: in vivo, human (Chinese patients); conditions: for Partial remission (PR) / Progressive disease (PD): number of patients (%)
# EBC-1 cell line = conditions: read-out: IC50 against the growth of lung cancer EBC-1 cell line; cited from earlier work
# Ron [h] = test system: Ron [h]; design: method as in unpublished data; conditions: 0.2 μM in vitro; one range for all five kinases; ref unpublished data; cited from earlier work
# [3] = Continuous dose (QD) pharmacokinetics (cycle 1, day 28) in patients; type: in vivo, human (Chinese patients); conditions: continuous QD dosing, 100 mg to 800 mg
# Protocol: (§1) For the single-dose PK test in the cycle 0, serial peripheral blood samples were collected at pre-dose and at 0.5, 1, 2, 3, 4, 6, 8, 12, 16, 24, 48, 72, and 144 h post-dose. For the continuous dose PK test in the cycle 1, serial peripheral blood samples were collected at pre-dose on days 8, 15, 22, and 28, and at 0.5, 1, 2, 3, 4, 5, 6, 8, 12, 16, 24, 48, and 72 h post-dose on day 28. All serial peripheral blood samples were collected in heparin sodium anticoagulation tubes and centrifuged at 1900g for 10 min before storage at − 80 °C until analysis.
# [4] = design: species or system human (Chinese patients); conditions: human, in vivo
# Protocol: as §1
# VEGFR = test system: VEGFR; design: method as in unpublished data; conditions: preclinical; ref unpublished data; read-out: IC50 against VEGFR; cited from earlier work
# [5] = biological target: wild-type c-Met tyrosine kinase; conditions: enzymatic assay; read-out: IC50 against wild-type c-Met tyrosine kinase; cited from earlier work
# [6] = test system: lung adenocarcinoma patient-derived xenograft (PDX); conditions: with overexpression of c-MET; ref our preclinical study; cited from earlier work
# AXL [h] = test system: AXL [h]; design: method as in unpublished data; conditions: 0.2 μM in vitro; one range for all five kinases; ref unpublished data; cited from earlier work
# [7] = design: method as in PMID 30718102; conditions: cited from earlier work
# METex14-altered NSCLC = test system: METex14-altered NSCLC; design: method as in doi:10.1200/JCO.2016.34.15_suppl.108; conditions: METex14-altered NSCLC patients; cited from earlier work
# [8] = 100 mg/qd group (printed 1 0 mg/qd), n = 4
# [9] = 20 patients, AEs reported by > 20% of patients
# [10] = safety population N = 20, 100–800 mg qd, number of patients (%)
structure (smiles),measurement,setting,value
CNC(=O)c1ccc(-c2cnc3ncc(Cc4ccc5ncccc5c4)n3n2)cc1F [capmatinib],patients with one or more dose interruptions,[1]; 21 patients,47.7%
same,AE: decreased appetite,[1],41%
same,AE: diarrhea,[1],25%
same,AE: increased blood creatinine,[1],52%
same,AE: nausea,[1],48
same,AE: vomiting,[1],39%
same,AEs leading to discontinuation,[1],9%
same,adverse events leading to dose adjustment and/or interruption,[1],59%
same,patients with dose interruption only once,[1]; nine patients,20.5%
same,overall ORR,EGFR-mutant NSCLC,27%
O=C(Nc1ccc(Oc2ccnc3c2CCN3)c(F)c1)c1c[nH]cc(-c2ccc(F)cc2)c1=O,inhibition of c-MET [h],c-MET [h],88–100%
same,pIC50,AXL kinase,8.05
same,inhibition of DDR2[h],DDR2[h],88–100%
same,inhibition of KDR [h],KDR [h],88–100%
same,"phosphorylation of c-MET and downstream signaling targets (ERK, AKT)",phosphorylation of c-MET,inhibits the phosphorylation of c-MET
same,"Disease control rate, % (95%CI)",[2]; [8],"0 (NA, NA) %"
same,"Objective remission rate, % (95%CI)",[2]; [8],"0 (NA, NA) %"
same,Partial remission (PR),[2]; [8],0
same,Progressive disease (PD),[2]; [8],3 (100.0%)
same,"Disease control rate, % (95%CI)","[2]; 200 mg/qd group, n = 3","66.7 (9.43, 99.16) %"
same,"Objective remission rate, % (95%CI)","[2]; 200 mg/qd group, n = 3","0 (NA, NA) %"
same,Partial remission (PR),"[2]; 200 mg/qd group, n = 3",0
same,Progressive disease (PD),"[2]; 200 mg/qd group, n = 3",1 (33.3%)
same,"Disease control rate, % (95%CI)","[2]; 300 mg/qd group, n = 3","66.7 (9.43, 99.16) %"
same,"Objective remission rate, % (95%CI)","[2]; 300 mg/qd group, n = 3","0 (NA, NA) %"
same,Partial remission (PR),"[2]; 300 mg/qd group, n = 3",0
same,Progressive disease (PD),"[2]; 300 mg/qd group, n = 3",1 (33.3%)
same,"Disease control rate, % (95%CI)","[2]; 450 mg/qd group, n = 4","50.0 (6.76, 93.24) %"
same,"Objective remission rate, % (95%CI)","[2]; 450 mg/qd group, n = 4","0 (NA, NA) %"
same,Partial remission (PR),"[2]; 450 mg/qd group, n = 4",0
same,Progressive disease (PD),"[2]; 450 mg/qd group, n = 4",2 (50.0%)
same,"Disease control rate, % (95%CI)","[2]; 600 mg/qd group, n = 3","66.7 (9.43, 99.16) %"
same,"Objective remission rate, % (95%CI)","[2]; 600 mg/qd group, n = 3","0 (NA, NA) %"
same,Partial remission (PR),"[2]; 600 mg/qd group, n = 3",0
same,Progressive disease (PD),"[2]; 600 mg/qd group, n = 3",1 (33.3%)
same,"Disease control rate, % (95%CI)","[2]; 800 mg/qd group, n = 3","100.0(29.24,100.0) %"
same,"Objective remission rate, % (95%CI)","[2]; 800 mg/qd group, n = 3","33.3 (0.84, 90.57) %"
same,Partial remission (PR),"[2]; 800 mg/qd group, n = 3",1 (33.3%)
same,Progressive disease (PD),"[2]; 800 mg/qd group, n = 3",0
same,patients with tumor burden reduced from baseline,[2]; 19 evaluable patients,53%
same,ORR,"[2]; 19 evaluable patients, text (95% CI 0.1–26%)",5%
same,DCR,"[2]; 19 evaluable patients, text (95% CI 34–80%)",58%
same,"Disease control rate, % (95%CI)","[2]; Total, N = 20 (19 evaluable)","57.9 (33.50, 79.75) %"
same,"Objective remission rate, % (95%CI)","[2]; Total, N = 20 (19 evaluable)","5.3 (0.13, 26.03) %"
same,Partial remission (PR),"[2]; Total, N = 20 (19 evaluable)",1 (5.3%)
same,Progressive disease (PD),"[2]; Total, N = 20 (19 evaluable)",8 (42.1%)
same,number of patients with a partial response,[2]; among 19 evaluable patients,1
same,number of patients with stable disease,[2]; among 19 evaluable patients,10 patients
same,DCR,"[2]; patients (n = 11) with MET gene amplification or c-MET overexpression, exploratory",82%
same,ORR,"[2]; patients without MET dysregulation (eight patients), exploratory",0%
same,pIC50,EBC-1 cell line,6.92
same,inhibition of Ron [h],Ron [h],88–100%
same,time after which steady-state concentration was reached,[3],28 days
same,dose at which exposure (AUC and Cmax) reached saturation,[4],600 mg
same,dose proportionality of maximal plasma concentration (Cmax),[4],increased obviously less than dose proportionally
same,dose proportionality of plasma exposure (AUC0–last),[4],increased slightly less than dose proportionally
same,mean t1/2 (half-life),[4],7.9 to 37.3 h
same,pIC50,VEGFR,7.52
same,pIC50,[5],8.22
same,tumor growth of lung adenocarcinoma,[6],significantly inhibited tumor growth
same,inhibition of AXL [h],AXL [h],88–100%
same,AEs (any grades) leading to dose adjustment,600 mg/qd group,one patient
same,AEs (any grades) leading to dose discontinuation,"600 mg/qd group n = 2, 800 mg/qd group n = 2",four patients
same,TRAE of grade 3 or higher: hypertension,20 patients,15%
same,TRAE of grade 3 or higher: laryngeal pain,20 patients,5%
same,TRAE of grade 3 or higher: pulmonary embolism,20 patients,5%
same,TRAE: constipation,20 patients,30%
same,TRAE: dysgeusia,20 patients,40%
same,TRAE: increased ALT / ALT elevation,20 patients,40%
same,"gastrointestinal symptoms such as vomiting and diarrhea, frequency reported",20 patients,≤ 10%
same,patients experiencing grade 3 AEs,20 patients,45%
same,rate of dose reduction due to AEs,20 patients,5%
same,patients with TRAEs of grade 3 or higher during treatment,20 patients (300 mg/qd n = 1; 600 mg/qd n = 2; 800 mg/qd n = 1),20%
same,patients with treatment-related AEs,"20 patients, 100–800 mg qd",85%
same,TRAE: palmar-plantar erythrodysesthesia syndrome,"20 patients, abstract",15%
same,TRAE: hypertension,"20 patients, any grade",25%
same,AE (any cause): constipation,[9],40%
same,AE (any cause): dysgeusia,[9],40%
same,AE (any cause): hypertension,[9],25%
same,AE (any cause): increased alanine transaminase (ALT),[9],40%
same,AE (any cause): increased conjugated bilirubin,[9],25%
same,AE (any cause): increased hemobilirubin,[9],25%
same,AE (any cause): nausea,[9],25%
same,dose-limiting toxicity (DLT),doses up to 800 mg once daily,No dose-limiting toxicity (DLT) was observed
same,maximum tolerated dose (MTD),maximum dose investigated 800 mg QD,not reached
same,serious adverse events,"pulmonary embolism, 600 mg/qd group, probably related to study treatment",One serious adverse event
same,"Treatment-related adverse event: Constipation, Grade ≥ 3",[10],0
same,"Treatment-related adverse event: Constipation, any grade",[10],6 (30%)
same,"Treatment-related adverse event: Dysgeusia, Grade ≥ 3",[10],0
same,"Treatment-related adverse event: Dysgeusia, any grade",[10],8 (40%)
same,"Treatment-related adverse event: Hypertension, Grade ≥ 3",[10],3 (15%)
same,"Treatment-related adverse event: Hypertension, any grade",[10],5 (25%)
same,"Treatment-related adverse event: Increase AST, Grade ≥ 3",[10],0
same,"Treatment-related adverse event: Increase AST, any grade",[10],4 (20%)
same,"Treatment-related adverse event: Increased ALT, Grade ≥ 3",[10],0
same,"Treatment-related adverse event: Increased ALT, any grade",[10],8 (40%)
same,"Treatment-related adverse event: Increased conjugated bilirubin, Grade ≥ 3",[10],0
same,"Treatment-related adverse event: Increased conjugated bilirubin, any grade",[10],5 (25%)
same,"Treatment-related adverse event: Increased creatine phosphokinase, Grade ≥ 3",[10],0
same,"Treatment-related adverse event: Increased creatine phosphokinase, any grade",[10],3 (15%)
same,"Treatment-related adverse event: Increased gamma-glutamyltransferase, Grade ≥ 3",[10],0
same,"Treatment-related adverse event: Increased gamma-glutamyltransferase, any grade",[10],4 (20%)
same,"Treatment-related adverse event: Increased hemobilirubin, Grade ≥ 3",[10],0
same,"Treatment-related adverse event: Increased hemobilirubin, any grade",[10],5 (25%)
same,"Treatment-related adverse event: Increased unconjugated bilirubin, Grade ≥ 3",[10],0
same,"Treatment-related adverse event: Increased unconjugated bilirubin, any grade",[10],3 (15%)
same,"Treatment-related adverse event: Palmar-plantar erythrodysesthesia, Grade ≥ 3",[10],0
same,"Treatment-related adverse event: Palmar-plantar erythrodysesthesia, any grade",[10],3 (15%)
same,"Treatment-related adverse event: Papulosis, Grade ≥ 3",[10],0
same,"Treatment-related adverse event: Papulosis, any grade",[10],2 (10%)
same,patients with drug discontinuation due to treatment-related AE,two patients in 600 mg/qd group and one in 800 mg/qd group,15%
COc1cc2nccc(Oc3ccc(NC(=O)C4(C(=O)Nc5ccc(F)cc5)CC4)cc3)c2cc1OC [cabozantinib],rate of discontinuation due to an AE,"[7]; Japanese NSCLC patients, phase 1",10%
same,AE: diarrhea,[7],78%
same,AE: hypertension,[7],87%
same,AE: increased ALT,[7],95%
same,AE: increased AST,[7],95%
same,AE: palmar-plantar erythrodysesthesia,[7],100%
same,patients who experienced ≥ grade 3 AEs,[7],70%
same,patients with dose reduction,"[7]; dose-escalation cohorts, about",30–40%
same,patients with discontinuation,[7]; dose-escalation cohorts,13%
C[C@@H](Oc1cc(-c2cnn(C3CCNCC3)c2)cnc1N)c1c(Cl)ccc(F)c1Cl [Crizotinib],unconfirmed response rate,METex14-altered NSCLC,up to 44%
